Laboratory results: ChEMBL document CHEMBL4422611, “A review on diverse heterocyclic compounds as the privileged scaffolds in antimalarial drug discovery” (Eur J Med Chem, 2018)
Converted amounts (≈) assume the structure as drawn.

What follows are compounds tested on Plasmodium falciparum (assay: Antimalarial activity against synchronized ring stage of chloroquine-sensitive Plasmodium falciparum 3D7 infected in human RBC assessed as parasite death at 5 ug/ml after 40 hrs by Giemsa staining based microscopic analysis relative to control).
Assay type: functional
`Clc1ccc2c(NCCN3CCN(c4nc(N5CCOCC5)nc(N5CCOCC5)n4)CC3)ccnc2c1` showed an Activity of 6%.

These compounds were tested on Plasmodium falciparum (assay: Antimalarial activity against synchronized ring stage of chloroquine-resistant Plasmodium falciparum RKL2 infected in human RBC assessed as parasite death at 5 ug/ml after 40 hrs by Giemsa staining based microscopic analysis relative to control).
Assay type: functional
`Clc1ccc2c(NCCN3CCN(c4nc(N5CCOCC5)nc(N5CCOCC5)n4)CC3)ccnc2c1` showed an Activity of 8%.

These compounds were tested on Plasmodium falciparum (assay: Antimalarial activity against Plasmodium falciparum infected in human RBC after 72 hrs by Giemsa staining based assay).
Assay type: functional, organism-based
For `COc1ccc2nc(Cl)c(/C=C3\C=C(c4ccc(C)cc4C)OC3=O)cc2c1`, the IC50 was 0.5 µg/mL (≈ 1.28 µM).

These compounds were tested on Plasmodium falciparum (assay: Antimalarial activity against synchronized ring stage of Plasmodium falciparum infected in human RBC measured after 48 hrs).
Assay type: functional, organism-based
`Cc1nn(-c2ccccc2)c(-n2ccnc2)c1C1C(C#N)=C(N)Oc2c1ccc1ccccc21` (stereo not drawn) showed an IC50 of 0.54 µg/mL. `Cc1nn(-c2ccccc2)c(-n2ccnc2)c1C1CC(c2ccc(O)cc2)=NN1` (stereo not drawn) gave an IC50 of 0.036 µg/mL. Compound `CCOC(=O)C1=C(N)Oc2c(c(=O)n(C)c(=O)n2C)C1c1c(C)nn(-c2ccccc2)c1-n1ccnc1` (stereo not drawn) has an IC50 of 0.049 µg/mL. With `CCOC(=O)C1=C(N)Oc2c(ccc(O)c2C)C1c1c(C)nn(-c2ccccc2)c1-n1ccnc1` (stereo not drawn) the IC50 was 0.061 µg/mL. Work on `Cc1nn(-c2ccccc2)c(-n2ccnc2)c1C1CC(c2ccc(Br)cc2)=NO1` (stereo not drawn) yielded an IC50 of 0.036 µg/mL. `Cc1nn(-c2ccccc2)c(-n2ccnc2)c1C1CC(c2ccc(Br)cc2)=NN1` (stereo not drawn) was tested, and the IC50 was 0.012 µg/mL. `Cc1n[nH]c2c1C(C1CCCCC1)c1c(n(C)c(=O)n(C)c1=O)N2` (stereo not drawn) showed an IC50 of 0.033 µg/mL. `Cc1nn(-c2ccccc2)c(-n2ccnc2)c1C1C(C#N)=C(N)Oc2ccc3ccccc3c21` (stereo not drawn) was tested, and the IC50 was 0.32 µg/mL. In the case of `CCOC(=O)C1=C(N)OC2=C(C(=O)CC(C)(C)C2)C1c1c(C)nn(-c2ccccc2)c1-n1ccnc1` (stereo not drawn), the IC50 is reported as 0.067 µg/mL. `Cc1nn(-c2ccccc2)c2c1C(c1c(C)nn(-c3ccccc3)c1-n1ccnc1)C(C#N)=C(N)O2` (stereo not drawn) gave an IC50 of 0.034 µg/mL. Work on `Cc1nn(-c2ccccc2)c(-n2ccnc2)c1C1C(C#N)=C(N)Oc2c1c(=O)oc1ccccc21` (stereo not drawn) yielded an IC50 of 0.42 µg/mL. Work on `Cc1nn(-c2ccccc2)c(Oc2ccccc2F)c1-c1nnc(-c2ccc(Br)cc2)o1` yielded an IC50 of 506 nM. Work on `Cc1nn(-c2ccccc2)c2c1C(c1cccs1)c1c(n(C)c(=O)n(C)c1=O)N2` (stereo not drawn) yielded an IC50 of 0.033 µg/mL. `Cc1n[nH]c2c1C(c1c(C)nn(-c3ccccc3)c1-n1ccnc1)C(C#N)=C(N)O2` (stereo not drawn) showed an IC50 of 0.57 µg/mL.

The compounds below were run on Plasmodium falciparum (assay: Antimalarial activity against Plasmodium falciparum).
Assay type: functional, organism-based
Compound `COc1ccc(NN2C(N)=C(C#N)C(c3c(C)nn(-c4ccccc4)c3Oc3cccc(C(F)(F)F)c3)C3=C2CC(C)(C)CC3=O)cc1` (stereo not drawn) has an IC50 of 0.042 µg/mL (≈ 0.0642 µM).
